The record followed here is patent publication US20040038855A1 (priority 1999, published 2004).

Molecules are shown by their SMILES. pKi: −log10 of the molar value. Where a name gives a salt, the structure may show the parent alone. Read-outs that look alike come from different tables or passages of the source.

Experiment [1] deals with human MCH1 receptor (Homo sapiens, UniProt Q99705). The experiment can be described thus: Intracellular calcium response to MCH in COS-7 cells transfected with MCH1 (fluo-3, FLIPR): antagonist potency. In kind it is cell-based. To be noted: read-out: Kb (nM) hMCH1. More on the design: expressed in transfected cells; host or cells: COS-7. The text has this: MCH1 antagonist compounds were identified by their ability to inhibit the MCH-elicited response. […]. From the IC50 values, the antagonist potency (Kb)was derived using the Cheng-Prussof correction (Lazareno and Birdsall, 1993). […]
Sequence of human MCH1 receptor (Q99705 whole entry): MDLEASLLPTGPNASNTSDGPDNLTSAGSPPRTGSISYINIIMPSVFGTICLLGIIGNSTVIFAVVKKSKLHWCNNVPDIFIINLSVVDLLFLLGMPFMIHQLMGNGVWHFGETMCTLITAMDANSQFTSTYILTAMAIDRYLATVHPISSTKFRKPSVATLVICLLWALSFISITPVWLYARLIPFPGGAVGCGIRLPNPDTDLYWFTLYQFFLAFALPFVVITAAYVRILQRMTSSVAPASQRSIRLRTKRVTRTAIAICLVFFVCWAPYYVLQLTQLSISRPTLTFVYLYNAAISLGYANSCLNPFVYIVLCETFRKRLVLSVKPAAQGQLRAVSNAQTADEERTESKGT

Experiment [2] addresses T1, human GALR1 receptor (Homo sapiens, UniProt P47211).
T1 construct: expressed in transfected cells
T1 sequence (P47211 1-349): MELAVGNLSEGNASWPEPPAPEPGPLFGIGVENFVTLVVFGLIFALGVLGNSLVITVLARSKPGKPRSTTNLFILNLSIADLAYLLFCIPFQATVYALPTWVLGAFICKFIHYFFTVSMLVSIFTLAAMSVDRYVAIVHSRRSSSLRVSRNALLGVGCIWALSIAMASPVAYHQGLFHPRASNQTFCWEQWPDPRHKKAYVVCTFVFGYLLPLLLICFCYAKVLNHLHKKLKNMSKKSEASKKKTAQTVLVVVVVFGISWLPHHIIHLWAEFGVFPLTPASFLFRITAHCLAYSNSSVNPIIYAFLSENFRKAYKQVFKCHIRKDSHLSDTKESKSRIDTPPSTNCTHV
In words: Binding affinity at the human GALR1 receptor. To be noted: Table 3a; read-out: hGALR1 Ki. The text has this:
(§1) The design of such compounds can be optimized by determining their binding affinity at the recombinant MCH1, NPY1, NPY2, Gal1, Gal2, Gal3, and 5HT2C receptors. The methods to obtain the cDNA of the receptor, express said receptors in heterologous systems, and carry out assays to determine binding affinity are described in the following publications: human NPY1 (Larhammar et al., 1992), human NPY5 (U.S. Pat. No. 5,602,024, the disclosure of which is hereby incorporated by reference in its entirety into this application), human Gall (Habert-Ortoli et al., 1994), human Gal2 (Smith et al., 1997), human Gal3 (Smith et al., 1998), and rat 5HT2C (Julius et al., 1988). Additionally, the compounds would optimally not bind at the following receptors due to possible side effects: human H1 histamine and human H2 histamine receptors; human alpha-1A adrenergic, human alpha-1D adrenergic, human alpha-2A adrenergic, human alpha-2B adrenergic, and human alpha-2C adrenergic receptors; human dopamine D1, D2, D3, D4, and D5 receptors; the β-adrenoceptor; and the human 5HT1A, human 5HT1B, human 5HT1D, human 5HT1E, human 5HT1F, human 5HT2A, rat 5HT2C, human 5HT4, human 5HT6, and human 5HT7 receptors.

For experiment [3], the target named is T2, human GALR3 receptor (Homo sapiens, UniProt O60755).
T2 construct: expressed in transfected cells
T2 sequence (O60755 1-368): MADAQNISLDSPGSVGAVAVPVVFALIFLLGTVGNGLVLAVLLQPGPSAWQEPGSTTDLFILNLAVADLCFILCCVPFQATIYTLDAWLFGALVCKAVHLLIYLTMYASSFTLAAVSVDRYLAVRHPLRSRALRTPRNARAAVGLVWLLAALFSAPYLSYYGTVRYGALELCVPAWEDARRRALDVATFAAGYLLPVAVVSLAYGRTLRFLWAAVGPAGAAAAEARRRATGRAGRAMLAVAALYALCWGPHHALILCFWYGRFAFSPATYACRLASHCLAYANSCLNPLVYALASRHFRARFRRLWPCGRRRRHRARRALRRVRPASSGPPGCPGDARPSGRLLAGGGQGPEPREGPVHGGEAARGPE
The experiment can be described thus: Binding affinity at the human GALR3 receptor. To be noted: Table 3a; read-out: hGALR3 Ki.
From the text: as §1

Experiment [4] concerns the target T3, human GALR2 receptor (Homo sapiens, UniProt O43603).
T3 construct: expressed in transfected cells
T3 sequence (O43603 1-387): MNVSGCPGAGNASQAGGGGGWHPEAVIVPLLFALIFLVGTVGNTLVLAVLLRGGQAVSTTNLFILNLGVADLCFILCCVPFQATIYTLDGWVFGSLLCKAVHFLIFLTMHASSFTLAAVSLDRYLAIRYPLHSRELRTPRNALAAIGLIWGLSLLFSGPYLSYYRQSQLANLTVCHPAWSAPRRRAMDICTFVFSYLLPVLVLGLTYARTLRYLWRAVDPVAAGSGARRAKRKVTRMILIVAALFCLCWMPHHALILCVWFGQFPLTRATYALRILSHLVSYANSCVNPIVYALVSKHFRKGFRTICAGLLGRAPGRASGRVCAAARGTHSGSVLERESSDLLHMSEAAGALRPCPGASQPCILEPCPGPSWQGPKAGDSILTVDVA
In words: Binding affinity at the human GALR2 receptor. To be noted: Table 3a; read-out: hGALR2 Ki.
From the text: as §1

For experiment [5], the target named is T4, rat 5HT2C receptor (Rattus norvegicus, UniProt P08909).
T4 construct: expressed in transfected cells
T4 sequence (P08909 33-460): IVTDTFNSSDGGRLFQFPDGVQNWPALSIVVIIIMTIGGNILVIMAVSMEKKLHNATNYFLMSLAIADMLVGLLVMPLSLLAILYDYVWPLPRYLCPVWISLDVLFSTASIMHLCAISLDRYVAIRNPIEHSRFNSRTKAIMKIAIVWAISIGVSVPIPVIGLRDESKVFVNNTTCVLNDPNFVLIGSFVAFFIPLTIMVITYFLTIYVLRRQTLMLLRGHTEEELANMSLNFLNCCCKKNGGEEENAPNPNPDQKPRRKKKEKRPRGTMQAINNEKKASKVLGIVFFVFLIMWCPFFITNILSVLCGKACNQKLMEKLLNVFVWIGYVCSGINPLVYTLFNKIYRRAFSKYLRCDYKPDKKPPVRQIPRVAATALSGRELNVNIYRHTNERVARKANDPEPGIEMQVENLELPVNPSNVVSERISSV
The experiment can be described thus: Binding affinity at the rat 5HT2C receptor. To be noted: Table 3a; read-out: r5HT2C Ki.
From the text: as §1
Other 5HT Receptors: Other serotonin receptor binding assays were performed according to published methods: rat 5HT2C receptor (Julius et al., 1988); and 5HT6 (Monsma, et al., 1993). The binding assays using the 5HT4 receptor were performed according to the procedures described in U.S. Pat. No. 5,766,879, the disclosure of which is hereby incorporated by reference in its entirety into this application.

In experiment [6] the target is T5, human NPY5 receptor (Homo sapiens, UniProt Q15761).
T5 construct: expressed in transfected cells
T5 sequence (Q15761 1-445): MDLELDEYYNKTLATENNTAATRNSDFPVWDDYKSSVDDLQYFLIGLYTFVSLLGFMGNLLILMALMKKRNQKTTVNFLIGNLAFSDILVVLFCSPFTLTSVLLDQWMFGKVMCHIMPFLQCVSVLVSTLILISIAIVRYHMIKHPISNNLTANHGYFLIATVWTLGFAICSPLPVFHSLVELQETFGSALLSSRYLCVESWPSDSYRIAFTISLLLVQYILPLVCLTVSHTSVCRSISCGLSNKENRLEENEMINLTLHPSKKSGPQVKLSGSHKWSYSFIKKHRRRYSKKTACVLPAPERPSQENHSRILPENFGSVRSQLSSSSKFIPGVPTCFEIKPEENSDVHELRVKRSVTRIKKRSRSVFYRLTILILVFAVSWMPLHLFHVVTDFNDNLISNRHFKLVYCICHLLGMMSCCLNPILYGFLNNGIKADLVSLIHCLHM
The experiment can be described thus: Binding affinity at the human NPY5 receptor. To be noted: Table 3a; read-out: hNPY5 Ki.
From the text: as §1

For experiment [7], the target named is T6, human NPY1 receptor (Homo sapiens, UniProt P25929).
T6 construct: expressed in transfected cells
T6 sequence (P25929 1-384): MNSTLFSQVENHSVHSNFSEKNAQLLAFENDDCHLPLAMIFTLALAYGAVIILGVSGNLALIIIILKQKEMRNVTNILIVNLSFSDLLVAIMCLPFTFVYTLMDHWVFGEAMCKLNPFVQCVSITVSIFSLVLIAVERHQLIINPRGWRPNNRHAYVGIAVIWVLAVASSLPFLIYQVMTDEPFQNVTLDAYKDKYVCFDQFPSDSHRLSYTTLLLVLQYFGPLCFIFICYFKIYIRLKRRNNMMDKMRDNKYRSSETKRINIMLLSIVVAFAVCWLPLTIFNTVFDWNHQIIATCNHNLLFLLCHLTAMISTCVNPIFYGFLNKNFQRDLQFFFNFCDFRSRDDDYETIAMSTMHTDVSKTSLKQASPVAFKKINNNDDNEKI
In words: Binding affinity at the human NPY1 receptor. To be noted: Table 3a; read-out: hMPY1 Ki.
From the text: as §1

Experiment [8] has as its target T7, human Dopamine D2 receptor (Homo sapiens, UniProt P14416).
T7 construct: purchased BioSignal, Inc. (Montreal, Canada)
In words: Binding affinity at the human dopamine D2 receptor. To be noted: Table 3c; read-out: hD2 Ki. A digest of the protocol: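 Cell membranes carrying the recombinant human dopamine D1 or D2 receptor served as the binding source. The adrenergic α2A and dopamine D5 measurements used receptor binding protocols.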

The target of experiment [9] is T8, human Histamine H1 receptor (Homo sapiens, UniProt P35367).
T8 construct: expressed in transfected cells
T8 sequence (P35367 whole entry): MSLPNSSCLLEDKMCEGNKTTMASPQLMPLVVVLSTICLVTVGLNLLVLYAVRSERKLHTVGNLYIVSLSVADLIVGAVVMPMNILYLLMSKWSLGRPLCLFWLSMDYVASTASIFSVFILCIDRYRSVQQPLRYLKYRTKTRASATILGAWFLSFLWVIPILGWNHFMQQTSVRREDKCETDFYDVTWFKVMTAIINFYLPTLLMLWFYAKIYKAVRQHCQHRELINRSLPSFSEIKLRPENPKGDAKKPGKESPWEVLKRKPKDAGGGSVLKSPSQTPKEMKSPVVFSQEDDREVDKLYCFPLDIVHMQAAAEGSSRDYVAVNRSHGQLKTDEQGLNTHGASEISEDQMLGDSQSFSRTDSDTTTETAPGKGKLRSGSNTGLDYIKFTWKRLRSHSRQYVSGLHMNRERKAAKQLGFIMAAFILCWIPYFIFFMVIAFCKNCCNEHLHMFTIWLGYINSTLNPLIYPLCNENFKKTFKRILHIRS
In words: Binding affinity at the human histamine H1 receptor. To be noted: Table 3c; read-out: hH1 Ki. A digest of the protocol: (§2)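 Receptor binding read-out throughout; membranes expressing human D1 or D2 receptor were used for those two targets.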

The target of experiment [10] is T9, human Alpha-1a Adrenergic receptor (Homo sapiens, UniProt P35348).
T9 construct: expressed in transfected cells
T9 sequence (P35348 1-466): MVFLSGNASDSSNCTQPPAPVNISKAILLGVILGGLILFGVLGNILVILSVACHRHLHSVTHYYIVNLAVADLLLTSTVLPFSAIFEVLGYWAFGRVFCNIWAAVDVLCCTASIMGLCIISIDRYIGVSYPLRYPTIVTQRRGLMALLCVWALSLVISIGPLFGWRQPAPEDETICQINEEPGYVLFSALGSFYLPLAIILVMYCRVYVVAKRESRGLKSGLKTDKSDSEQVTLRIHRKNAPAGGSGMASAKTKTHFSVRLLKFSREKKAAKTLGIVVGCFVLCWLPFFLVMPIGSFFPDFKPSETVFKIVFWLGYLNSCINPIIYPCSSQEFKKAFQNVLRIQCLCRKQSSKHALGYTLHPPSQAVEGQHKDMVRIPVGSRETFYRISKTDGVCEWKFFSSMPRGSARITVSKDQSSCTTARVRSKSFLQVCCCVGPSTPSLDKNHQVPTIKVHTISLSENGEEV
The experiment can be described thus: Binding affinity at the human alpha-1A adrenergic receptor. To be noted: Table 3c; read-out: hAlpha-1a Ki. A digest of the protocol: as §2

Experiment [11] addresses T10, rat MCH1 receptor (Rattus norvegicus, UniProt P97639).
T10 construct: expressed in transfected cells
In words: Binding affinity (Ki) at the rat MCH1 receptor.

T10 sequence (P97639 whole entry): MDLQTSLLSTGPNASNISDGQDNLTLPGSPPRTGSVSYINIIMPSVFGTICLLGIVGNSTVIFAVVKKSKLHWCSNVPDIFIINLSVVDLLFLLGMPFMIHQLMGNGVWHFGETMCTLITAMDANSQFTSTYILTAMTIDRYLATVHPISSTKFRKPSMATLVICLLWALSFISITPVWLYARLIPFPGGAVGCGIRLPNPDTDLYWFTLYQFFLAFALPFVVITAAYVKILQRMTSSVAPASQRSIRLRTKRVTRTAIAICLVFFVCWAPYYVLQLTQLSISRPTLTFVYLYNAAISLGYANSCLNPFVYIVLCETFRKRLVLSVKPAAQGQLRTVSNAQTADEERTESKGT
T7 sequence (P14416 whole entry): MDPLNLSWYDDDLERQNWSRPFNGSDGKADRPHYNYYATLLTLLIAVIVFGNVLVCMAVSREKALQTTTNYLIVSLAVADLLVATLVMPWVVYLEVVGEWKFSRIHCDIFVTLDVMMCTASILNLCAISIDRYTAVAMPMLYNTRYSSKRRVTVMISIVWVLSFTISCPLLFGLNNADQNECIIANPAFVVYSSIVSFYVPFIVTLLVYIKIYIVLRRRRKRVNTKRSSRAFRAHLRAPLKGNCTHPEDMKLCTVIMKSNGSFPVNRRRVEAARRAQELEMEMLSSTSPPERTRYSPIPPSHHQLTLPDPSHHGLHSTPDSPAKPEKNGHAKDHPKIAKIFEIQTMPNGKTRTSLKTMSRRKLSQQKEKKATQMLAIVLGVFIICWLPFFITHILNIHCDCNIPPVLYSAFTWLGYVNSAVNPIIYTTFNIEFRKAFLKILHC

A word on the Kb: it is the equilibrium dissociation constant of an antagonist, usually derived from a functional assay. Turning to `CCn1c(=O)n(C2CCN(CCCNC(=O)N3C(=O)NC(C)=C(C(=O)OC)C3c3ccc(F)c(F)c3)CC2)c2ccccc21` (single isomer, unassigned; (+)) [Example 7, (+)-1,2,3,6-TETRAHYDRO-1-{N-[4-(N′-ETHYL)-N-BENZIMIDAZOLYL-PIPERIDIN-1YL]PROPYL}CARBOXAMIDO-4-METHYL-6-(3,4-DIFLUOROPHENYL)-2-OXOPYRIMIDINE HYDROCHLORIDE], the Kb in experiment [1] worked out at 41 nM.
In the case of `CC(=O)C1=C(C)NC(=O)N(C(=O)NCCCN2CCC(c3ccc(F)cc3)CC2)C1c1cc(F)c(F)c(F)c1` (single isomer, unassigned; (+)) [Example 12, (+)-1,2,3,6-TETRA HYDRO-1-{N-[4-(4-FLUOROPHENYL)-PIPERIDINE-1-YL]-PROPYL]CARBOXAMIDO-5-ACETYL-2-OXO-6-(3,4,5-TRI FLUORO PHENYL)-4-METHYL PYRIMIDINE HYDROCHLORIDE], in [1], the Kb turned out to be 29 nM.
Broadly, the pKi is the Ki on a negative log10 scale, so that one unit is a factor of ten. `CCN1c2ccc(/C=C3\SC(=S)NC3=O)cc2C(C)=CC1(C)C` [Example 25]: the pKi is less than 4.30 in [2]; less than 4.30 in experiment [3]; less than 4.30 in [4]; 4.39 in [5]; less than 4.30 in experiment [6].
For the compound `Fc1ccc(C(c2ccc(F)cc2)N2CCN(C/C=C/c3ccccc3)CC2)cc1` [Example 26, 1-[BIS(4-FLUOROPHENYL)METHYL]-4-(3-PHENYL-2-PROPENYL)PIPERAZINE], the pKi in [7], in experiment [2], in experiment [3], in [4] and in experiment [6] was less than 4.30 each time.
As to `Cc1cc(O)cc(O)c1/C=N/c1ccc(-c2cn3ccccc3n2)cc1` [Example 27], the pKi in [7], in experiment [2], in experiment [3], in experiment [4], in experiment [5] and in experiment [6] was less than 4.30 throughout.
In the case of `O=C(CCCN1CCC(NC(=O)c2ccccc2)CC1)c1ccc(Cl)cc1` [Example 28, [3-(4-CHLOROBENZOYL)]PROPYL-4-BENZAMIDOPIPERIDINE], the pKi in experiment [2] was less than 4.30; in experiment [3], less than 4.30; in experiment [4], less than 4.30; in experiment [5], 4.47; in [6], less than 4.30.
On to `CN1CN(c2ccccc2)C2(CCN(CCCC(=O)c3ccc(F)cc3)CC2)C1=O` [Example 30, N-METHYL-8-[4-(4-FLUOROPHENYL)-4-OXOBUTYL]-1-PHENYL-1,3,8-TRI-[4.5]DECAN-4-ONE], for which the pKi is less than 4.30 in experiment [7]; less than 4.30 in experiment [2]; less than 4.30 in experiment [3]; less than 4.30 in [4]; 5.05 in experiment [5]; less than 4.30 in experiment [6].
For orientation: Ki means the equilibrium dissociation constant of an inhibitor or competing ligand from its target. In the case of `CC(=O)c1cccc(O[C@@H](CCN2CCC(c3cccc(NC(=O)C(C)C)c3)CC2)c2ccccc2)c1` [Example 141], the pKi in experiment [8] was 5.61; in experiment [9], 5.42; in experiment [10], 5.52; in [11] (Table 3c, read-out: rMCH1 Ki), 8.49. For the same compound, the Ki in experiment [11] (Examples 38-141, read-out: Ki (nM) rMCH1) turned out to be 3.2 nM.
